Key:
TagK-TF^His6 = TagK-TF^His6 (Bacillus licheniformis, UniProt Q65EY9); assay: coupled assay LacD/TPI/G3PDH, NADH oxidation at […] nm; format: biochemical; details: read-out: % residual activity at 10 mM
purified protein = substrate: O=C(COP(=O)(O)O)[C@@H](O)[C@@H](O)[C@H](O)CO; assay: purified protein; format: biochemical, Bacillus licheniformis; details: 2 mM ATP, 10 mM MgCl2, 50 mM Tris-HCl pH 8.0, 25 °C

Row | Molecule | remaining activity at 10000 µM (TagK-TF^His6) [%] | Km (purified protein) [mM] | kcat (purified protein) [s⁻¹]
1 | O=P(O)(O)OC[C@H]1OC(O)(CO)[C@@H](O)[C@H]1O (stereo partly drawn) [Tag-6P, D-tagatose-6-phosphate] | 43 |  | 
2 | O=P(O)(O)OC[C@H]1OC(O)(CO)[C@@H](O)[C@@H]1O (stereo partly drawn) [Fru-6P, D-fructose 6-phosphate] | 69 |  | 
3 | TagK-TF^His6 (Bacillus licheniformis DSM 13 = ATCC 14580) (protein) MIYTCTMNTAVDLFVETDELLPDVVNRTKDEDYQPNGKGVNISFMLKRLGLDNTALGFTGGFTGRFIENELLNEKIVTDFVEVEGISRINIFINSTREFKIVNKGPLISEARKQELINKIRQIPPGRFLFISGSLPRGVPDDMYLSLSEIAAENKLKLILDISSPVLLDCLSYHPYLIKPNEQELAAFFSRKKALSEEEIIHCGKELLDRGAERVLISRGKDGALYLDRQRTLKATAAKGKVVNTACAGDAMLAVFVGKQELGCSVPEALRHASAAGSLTAFSKGLGDVSKLDQTASQIQITHL |  | 3.2 ± 0.4 | 0.44 ± 0.01
